Results on 17 molecules are retold here after US11285135B2 (AMGEN INC., priority 2016, dated 2022).

For experiment [1], the system named is Phosphorylation of ERK½ in A549 cells. Kind of experiment: Phospho-ERK½ MSD Assay in A549 cells. The format is cell-based. The note with it: Homo sapiens, A549, A549 cells; 4 hours compound treatment; 10 ng/mL EGF for 10 min; read-out: p-ERK IC50 (A549). The procedure, abridged:
(§1)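 MIA PaCa-2 or A549 cells (25,000/well, RPMI with 10% FBS) exposed to compound titration for 4 h at 37 °C, then stimulated with 10 ng/mL EGF for 10 min and lysed in RIPA. Phospho-ERK1/2 quantified by MSD whole-cell lysate immunoassay; IC50 from 4-parameter logistic fit.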

Experiment [2] deals with GDP-bound protein (aa 1-169), containing both G12C and C118A amino acid substitutions (Homo sapiens, UniProt P01116, C118A/G12C). As to the kind of experiment: Coupled Nucleotide Exchange Assay (SOS-mediated nucleotide exchange, AlphaScreen). The format is biochemical. The note with it: 2 hours compound pre-incubation. The procedure, abridged:
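AlphaScreen signal after SOS (aa 564-1049)/GTP-driven exchange (1 h) on GDP-loaded His-[…] G12C/C118A (aa 1-169), following a 2 h compound pre-incubation in HEPES pH 7.4 buffer with 10 mM MgCl2 and 0.01% Triton X-100. IC50s fitted by 4-parameter logistic model.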
In general terms: Alpha assays give light when donor and acceptor beads are brought close together.

The test system of experiment [3] is Phosphorylation of ERK½ in MIA PaCa-2 cells. As to the kind of experiment: Phospho-ERK½ MSD Assay in MIA PaCa-2 cells. The experiment is classed as cell-based. The note with it: Homo sapiens, MIA PaCa-2, MIA PaCa-2 cells; 4 hours compound treatment; 10 ng/mL EGF for 10 min; read-out: p-ERK IC50 (MIA PaCa-2). The procedure, abridged:
as §1

Each structure is given as a SMILES string. A value given as a limit tells only on which side of the number the result lay.

Sequence of GDP-bound protein (aa 1-169), containing both G12C and C118A amino acid substitutions (P01116 1-169 isoform P01116-2 G12C/C118A): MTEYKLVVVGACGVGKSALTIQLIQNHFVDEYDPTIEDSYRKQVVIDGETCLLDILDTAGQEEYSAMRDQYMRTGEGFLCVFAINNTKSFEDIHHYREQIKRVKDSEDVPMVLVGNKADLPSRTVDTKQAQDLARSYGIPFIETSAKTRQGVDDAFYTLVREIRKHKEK

As a reminder, the IC50 is the point on the concentration scale where inhibition reaches its midpoint. For the molecule `C=CC(=O)N1CCN(c2nc(=O)n(-c3ccccc3C(C)C)c3cc(-c4c(O)cccc4F)c(Cl)cc23)[C@@H](C)C1` [Example 8-3, 6-chloro-7-(2-fluoro-6-hydroxyphenyl)-4-((2S)-2-methyl-4-(2-propenoyl)-1-piperazinyl)-1-(2-(2-propartyl)phenyl)-2(1H)-quinazolinone], the IC50 in experiment [1] is over 100 µM; in experiment [3] it was 0.061 µM. Besides, the “Coupled exchange IC50” value in experiment [2] amounted to 0.783 µM.

For the molecule `C=CC(=O)N1CCN(c2nc(=O)n(-c3cccc(C#N)c3)c3cc(-c4c(O)cccc4F)c(Cl)cc23)CC1` [Example 9-5, 3-(6-chloro-7-(2-fluoro-6-hydroxyphenyl)-2-oxo-4-(4-(2-propenoyl)-1-piperazinyl)-1(2H)-quinazolinyl)benzonitrile], the half-inhibitory concentration (IC50) was over 100 µM in experiment [1] and 3.92 µM in experiment [3]. Moreover, in experiment [2], the “Coupled exchange IC50” value worked out at 1.33 µM.

For the molecule `C=CC(=O)N1CC[C@@H]2[C@H]1CN2c1snc2c(F)c(-c3cc(O)cc4ccccc34)c(Cl)cc12` [Example 5-5, 1-((1R,5R)-6-(5-chloro-7-fluoro-6-(3-hydroxy-1-naphthalenyl)-2,1-benzothiazol-3-yl)-2,6-diazabicyclo[3.2.0]heptan-2-yl)-2-propen-1-one], the IC50 in experiment [1] was over 100 µM; in experiment [3] it was 2.53 µM. Moreover, in experiment [2], the “Coupled exchange IC50” value is 0.341 µM.

Consider `C=CC(=O)N1CCN(c2snc3c(F)c(-c4cc(O)cc5ccccc45)c(Cl)cc23)[C@@H](C)C1` (single isomer, unassigned) [Example 1-19-1], for which the IC50 was over 100 µM in experiment [1] and 0.368 µM in experiment [3]. Also, the “Coupled exchange IC50” value in experiment [2] was determined as 0.115 µM.

With `C=CC(=O)N1CCN(c2snc3c(F)c(-c4cc(N)c(Cl)cc4Cl)c(Cl)cc23)CC1` [Example 3-20, 1-(4-(6-(5-amino-2,4-dichlorophenyl)-5-chloro-7-fluoro-2,1-benzothiazol-3-yl)-1-piperazinyl)-2-propen-l-one], the IC50 in experiment [1] is over 100 µM; in experiment [3], 9.65 µM. Moreover, the “Coupled exchange IC50” value in experiment [2] was 2.99 µM.

As to `C=CC(=O)N1CCN(c2snc3c(F)c(-c4cc(O)cc5ccccc45)c(Cl)cc23)[C@H](CC)C1` (racemic) [Example 1-8], the IC50 in experiment [1] was over 100 µM; in experiment [3], 6.07 µM. In addition, the “Coupled exchange IC50” value in experiment [2] is 0.894 µM.

In the case of `C=CC(=O)N1CCN(c2snc3c(F)c(-c4cc(O)cc5ccccc45)c(Cl)cc23)[C@@H](C(F)F)C1` (racemic) [Example 7-1], the half-inhibitory concentration (IC50) is over 100 µM in experiment [1] and 0.43 µM in experiment [3]. Further, in experiment [2], the “Coupled exchange IC50” value was determined as 0.299 µM.

Consider `C=CC(=O)N1CCN(c2nnc(-c3ccccc3CC)c3cc(-c4c(O)cccc4F)c(Cl)cc23)CC1` [Example 10-5, 1-(4-(7-chloro-4-(2-ethylphenyl)-6-(2-fluoro-6-hydroxyphenyl)-1-phthalazinyl)-1-piperazinyl)-2-propen-1-one], for which the IC50 in experiment [1] was over 100 µM; in experiment [3] it was 3.41 µM. Besides, the “Coupled exchange IC50” value in experiment [2] was 0.297 µM.

In the case of `C=CC(=O)N1CCN(c2snc3c(F)c(-c4cc(O)cc5ccccc45)c(Cl)cc23)[C@@H](CF)C1` (racemic) [Example 7-2, 1-(4-(5-chloro-7-fluoro-6-(3-hydroxy-1-naphthalenyl)-2,1-benzothiazol-3-yl)-3-(fluoromethyl)-1-piperazinyl)-2-pxopen-1-one], the IC50 in experiment [1] is over 100 µM; in experiment [3], 0.222 µM. Also, in experiment [2], the “Coupled exchange IC50” value is 0.180 µM.

Consider `C=CC(=O)NC1CN(c2snc3c(F)c(-c4cc(O)cc5ccccc45)c(Cl)cc23)C1` [Example 4-6, N-(1-(5-chloro-7-fluoro-6-(3-hydroxy-1-naphthalenyl)-2,1-benzothiazol-3-yl)-3-azetidinyl)-2-propenamide], for which the IC50 in experiment [1] is over 100 µM; in experiment [3], 10.3 µM. In addition, in experiment [2], the “Coupled exchange IC50” value was found to be 0.630 µM.

For the molecule `C=CC(=O)N1CCN(c2snc3c(F)c(-c4c(O)ccc5ccccc45)c(Cl)cc23)CC1` [Example 1-14, 1-(4-(5-chloro-7-fluoro-6-(2-hydroxy-1-naphthalenyl)-2,1-benzothiazol-3-yl)-1-piperazinyl)-2-propen-1-one], the IC50 in experiment [1] is over 100 µM; in experiment [3], 5.03 µM. Also, the “Coupled exchange IC50” value in experiment [2] was found to be 1.78 µM.

With `C=CC(=O)N1CCN(c2nnc(Nc3ccccc3)c3cc(-c4c(O)cccc4F)c(Cl)cc23)CC1` [Example 13, 1-(4-(4-Anilino-7-chloro-6-(2-fluoro-6-hydroxyphenyl)-1-phthalazinyl)-1-piperazinyl)-2-propen-1-one], the IC50 in experiment [1] and in experiment [3] was over 100 µM in each case. In addition, the “Coupled exchange IC50” value in experiment [2] is 5.20 µM.

With `C=CC(=O)N1CCN(c2snc3c(F)c(-c4cc(N)cc(F)c4F)c(Cl)cc23)CC1` [Example 3-15, 1-(4-(6-(5-amino-2,3-difluorophenyl)-5-chloro-7-fluoro-2,1-benzothiazol-3-yl)-1-piperazinyl)-2-propen-1-one], the IC50 in experiment [1] was over 100 µM; in experiment [3], 20.1 µM. Besides, the “Coupled exchange IC50” value in experiment [2] is 4.03 µM.

Turning to `C=CC(=O)N1CCN(c2nnc(-c3ccccc3C3CC3)c3cc(-c4c(O)cccc4F)c(Cl)cc23)CC1` [Example 10-10, 1-(4-(7-chloro-4-(2-cyclopropylphenyl)-6-(2-fluoro-6-hydroxyphenyl)-1-phthalazinyl)-1-piperazinyl)-2-propen-1-one], the IC50 in experiment [1] was over 100 µM; in experiment [3], 6.85 µM. Further, the “Coupled exchange IC50” value in experiment [2] was found to be 0.359 µM.

In the case of `C=CC(=O)N1CCN(c2snc3c(F)c(-c4cc(O)cc5ccccc45)c(Cl)cc23)C[C@H]1C` [Example 5-7, 1-((2R)-4-(5-chloro-7-fluoro-6-(3-hydroxy-1-naphthalenyl)-2,1-benzothiazol-3-yl)-2-methyl-1-piperazinyl)-2-propen-1-one], the half-maximal inhibitory concentration (IC50) in experiment [1] is over 100 µM; in experiment [3], 3.79 µM. For the same molecule, in experiment [2], the “Coupled exchange IC50” value stood at 0.815 µM.

With `C=CC(=O)N1CCN(c2nc(=O)n(-c3ccccc3C(C)CC)c3cc(-c4cc(O)cc5ccccc45)c(Cl)cc23)CC1` (racemic) [Example 9-4, 1-(2-(2-butanyl)phenyl)-6-chloro-7-(3-hydroxy-1-naphthalenyl)-4-(4-(2-propenoyl)-1-piperazinyl)-2(1H)-quinazolinone], the values for the concentration for half-maximal inhibition (IC50) in experiment [1] and in experiment [3] were 13 µM and 0.023 µM, respectively. The “Coupled exchange IC50” value in experiment [2] was 0.198 µM.

For `C=CC(=O)N1CCN(c2snc3nc(-c4c(C)ccc5[nH]ncc45)c(Cl)cc23)C(C)C1` (single isomer, unassigned) [Example 2-6-2, 1-((3R)-4-(5-chloro-6-(5-methyl-1H-indazol-4-yl)[1,2]thiazolo[3,4-b]pyridin-3-yl)-3-methyl-1-piperazinyl)-2-propen-1-one or 1-((3S)-4-(5-chloro-6-(5-methyl-1H-indazol-4-yl)[1,2]thiazolo[3,4-b]pyridin-3-yl)-3-methyl-1-piperazinyl)-2-propen-1-one], the IC50 in experiment [1] stood at 3.7 µM; in experiment [3], 1.29 µM. Also, the “Coupled exchange IC50” value in experiment [2] was 1.25 µM.
